This assay concerns the target T1, recombinant guanylate cyclase reporter cell line (Rattus norvegicus, UniProt P19686+P20595).
T1 construct: expressed in transfected cells
T1 sequence (P20595 1-619): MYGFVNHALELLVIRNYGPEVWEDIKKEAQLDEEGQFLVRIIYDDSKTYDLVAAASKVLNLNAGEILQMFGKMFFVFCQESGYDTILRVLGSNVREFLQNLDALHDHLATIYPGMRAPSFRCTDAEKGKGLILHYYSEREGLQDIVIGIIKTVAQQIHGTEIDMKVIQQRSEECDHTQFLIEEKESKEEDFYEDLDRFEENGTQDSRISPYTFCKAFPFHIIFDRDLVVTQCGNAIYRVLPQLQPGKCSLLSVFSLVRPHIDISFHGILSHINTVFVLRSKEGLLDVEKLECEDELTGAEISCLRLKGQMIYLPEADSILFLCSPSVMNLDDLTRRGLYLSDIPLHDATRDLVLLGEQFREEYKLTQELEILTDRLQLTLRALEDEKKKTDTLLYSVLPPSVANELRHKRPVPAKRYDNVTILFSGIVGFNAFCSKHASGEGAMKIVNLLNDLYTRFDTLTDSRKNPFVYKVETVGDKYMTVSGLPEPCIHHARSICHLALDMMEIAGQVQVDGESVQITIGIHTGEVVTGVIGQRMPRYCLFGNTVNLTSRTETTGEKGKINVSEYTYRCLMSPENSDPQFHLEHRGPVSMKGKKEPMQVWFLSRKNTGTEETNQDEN
T1 sequence (P19686 1-690): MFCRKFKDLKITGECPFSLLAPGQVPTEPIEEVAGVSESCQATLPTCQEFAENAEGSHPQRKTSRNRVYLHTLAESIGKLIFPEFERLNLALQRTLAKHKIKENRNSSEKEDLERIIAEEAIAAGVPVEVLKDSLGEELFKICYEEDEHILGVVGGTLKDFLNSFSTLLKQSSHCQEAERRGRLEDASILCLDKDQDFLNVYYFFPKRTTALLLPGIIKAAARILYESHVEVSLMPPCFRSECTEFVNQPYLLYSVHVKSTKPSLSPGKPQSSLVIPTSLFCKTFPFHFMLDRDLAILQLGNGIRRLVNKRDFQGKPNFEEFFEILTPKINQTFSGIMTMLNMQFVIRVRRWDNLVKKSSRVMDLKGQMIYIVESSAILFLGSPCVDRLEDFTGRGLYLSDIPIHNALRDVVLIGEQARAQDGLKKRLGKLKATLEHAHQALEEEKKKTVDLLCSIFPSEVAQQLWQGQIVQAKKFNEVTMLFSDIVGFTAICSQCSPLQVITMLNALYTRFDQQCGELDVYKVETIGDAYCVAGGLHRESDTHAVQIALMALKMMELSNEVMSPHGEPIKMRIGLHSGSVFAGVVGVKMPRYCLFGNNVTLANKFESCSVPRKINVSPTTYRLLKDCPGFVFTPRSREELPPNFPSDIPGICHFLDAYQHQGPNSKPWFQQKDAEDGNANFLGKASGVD
Description: Action on recombinant guanylate cyclase reporter cell line. The format is cell-based. As to conditions: representative MEC values. How it is done: B-2. Action on Recombinant Guanylate Cyclase Reporter Cell Line
The cellular action of the compounds according to the invention is determined on a recombinant guanylate cyclase reporter cell line, as described in F. Wunder et al., Anal. Biochem. 339, 104-112 (2005).
Representative MEC values (MEC=minimal effective concentration) for the compounds according to the invention are shown in the following table: […]
On to `COC(=O)C(CCCC(F)(F)F)NC(=O)c1c(C)nc2c(OCc3c(F)cccc3F)cc(Cl)cn12` (racemic) [Example 13, rac-Methyl N-({6-chloro-8-[(2,6-difluorobenzyl)oxy]-2-methylimidazo[1,2-a]pyridin-3-yl}carbonyl)-6,6,6-trifluoronorleucinate], for which the “MEC (minimal effective concentration)” value stood at 0.3 µM. As for `Cc1cc(OCc2c(F)cccc2F)c2nc(C)c(C(=O)NC[C@H]3CC[C@H](C(=O)O)CC3)n2c1` [Example 25, trans-4-{[({8-[(2,6-Difluorobenzyl)oxy]-2,6-dimethylimidazo[1,2-a]pyridin-3-yl}carbonyl)amino]methyl}cyclohexanecarboxylic acid], the figure is 1.0 µM; as for `COC(=O)C(NC(=O)c1c(C)nc2c(OCc3c(F)cccc3F)cccn12)c1ccc(F)cc1` (racemic) [Example 1, rac-Methyl [({8-[(2,6-difluorobenzyl)oxy]-2-methylimidazo[1,2-a]pyridin-3-yl}carbonyl)amino]-(4-fluorophenyl)acetate], 0.3 µM. As for `Cc1nc2c(OCC3CCCCC3)cccn2c1C(=O)NCCCCCCCC(=O)O` [Example 20, 8-({[8-(Cyclohexylmethoxy)-2-methylimidazo[1,2-a]pyridin-3-yl]carbonyl}amino)octanoic acid], the figure is 0.065 µM; as for `COC(=O)CC(C)NC(=O)c1c(C)nc2c(OCc3c(F)cccc3F)cccn12` (racemic) [Example 4, rac-Methyl 3-[({8-[(2,6-difluorobenzyl)oxy]-2-methylimidazo[1,2-a]pyridin-3-yl}carbonyl)amino]butanoate], 1.0 µM. Then `CCCCC(NC(=O)c1c(C)nc2c(OCc3c(F)cccc3F)cccn12)C(=O)OC` (single isomer, unassigned; enantiomer a) [Example 18, ent-Methyl N-({8-[(2,6-difluorobenzyl)oxy]-2-methylimidazo[1,2-a]pyridin-3-yl}carbonyl)-norleucinate (Enantiomer A)], with 0.3 µM; and `COC(=O)CCCCCCCNC(=O)c1c(C)nc2c(OCc3c(F)cccc3F)cccn12` [Example 15, Methyl 8-[({8-[(2,6-difluorobenzyl)oxy]-2-methylimidazo[1,2-a]pyridin-3-yl}carbonyl)amino]octanoate], with 1.0 µM. Consider `COC(=O)C(CCCC(F)(F)F)NC(=O)c1c(C)nc2c(OCc3c(F)cccc3F)cccn12` (racemic) [Example 11, rac-Methyl N-({8-[(2,6-difluorobenzyl)oxy]-2-methylimidazo[1,2-a]pyridin-3-yl}carbonyl)-6,6,6-trifluoronorleucinate], for which the “MEC (minimal effective concentration)” value came out at 0.3 µM. As for `COC(=O)[C@@H](C)NC(=O)c1c(C)nc2c(OCc3c(F)cccc3F)cccn12` [Example 6, Methyl N-({8-[(2,6-difluorobenzyl)oxy]-2-methylimidazo[1,2-a]pyridin-3-yl}carbonyl)-D-alaninate], the figure is 3.0 µM; as for `Cc1nc2c(OCc3c(F)cccc3F)cccn2c1C(=O)NCCCCCCCC(=O)O` [Example 21, 8-[({8-[(2,6-Difluorobenzyl)oxy]-2-methylimidazo[1,2-a]pyridin-3-yl}carbonyl)amino]octanoic acid], 0.1 µM. As for `COC(=O)C(C)(C)NC(=O)c1c(C)nc2c(OCc3c(F)cccc3F)cccn12` [Example 5, Methyl N-({8-[(2,6-difluorobenzyl)oxy]-2-methylimidazo[1,2-a]pyridin-3-yl}carbonyl)-2-methylalaninate], the figure is 0.3 µM; as for `COC(=O)C(CCCC(F)(F)F)NC(=O)c1c(C)nc2c(OCc3c(F)cccc3F)cc(C)cn12` (racemic) [Example 12, rac-Methyl N-({8-[(2,6-difluorobenzyl)oxy]-2,6-dimethylimidazo[1,2-a]pyridin-3-yl}carbonyl)-6,6,6-trifluoronorleucinate], 0.3 µM; as for `COC(=O)[C@H]1CC[C@H](CNC(=O)c2c(C)nc3c(OCc4c(F)cccc4F)cc(C)cn23)CC1` [Example 24, Methyl trans-4-{[({8-[(2,6-difluorobenzyl)oxy]-2,6-dimethylimidazo[1,2-a]pyridin-3-yl}carbonyl)-amino]methyl}cyclohexanecarboxylate], 0.1 µM.

For the origin of these results see patent publication US8796305B2 (Bayer Pharma Aktiengesellschaft, priority 2012, dated 2014).
